Test results reported in patent US8115033B2, “3-(4-hydroxy-3-methoxyphenyl)-1-(4-hydroxyphenyl)-1-propanone and use thereof as an antimicrobial active ingredient” (Symrise AG, priority 2007, dated 2012).
In brackets after ≈: the same amount, converted by molar mass.

Assays:
[1] = test system: Corynebacterium xerosis (DSM 20743); assay: quantitative suspension test; assay type: cell-based
[2] = test system: Brevibacterium epidermidis (ATCC 35514); assay: turbidimetric growth-curve MIC determination; assay type: cell-based; details: turbidimetry 620 nm, 16 h, 37° C.
Source text: (§1) The recognition that 3-(4-hydroxy-3-methoxyphenyl)-1-(4-hydroxyphenyl)-1-propanone of the formula 1 is very particularly suitable for combating microorganisms which are responsible for body odor is based on series of investigations relating to the particularly relevant microorganisms Staphylococcus epidermidis, Corynebacterium xerosis and Brevibacterium epidermidis. The antimicrobial action of 3-(4-hydroxy-3-methoxyphenyl)-1-(4-hydroxyphenyl)-1-propanone is here detected with the assistance of a turbidimetric measurement method. Turbidity measurement is used to establish growth curves for the particular microorganism in the presence and absence of an antimicrobial active ingredient. A possible inhibitory action of the test substance used is identified from the profile of the growth curves. Solutions with saline or DMSO for 100% growth are prepared as a negative control. The active substances to be investigated are first diluted in DMSO in reaction vessels. Dilution is carried out in accordance with the concentration range to be tested and corresponds in each case to 100 times the concentration of the subsequent final concentration in the test. Testing is usually begun with a final concentration of 2000 ppm in the test. Growth curves at final concentrations of 1000 ppm, 500 ppm, 250 ppm, 125 ppm, 64 ppm, 32 ppm, 16 ppm and 8 ppm are subsequently determined. The bacterial cultures are then incubated in the presence of the various final concentrations of antimicrobial active ingredient for 16 h (incubation temperature: 37° C.). The absorption values (wavelength 620 nm; measurement interval: 20 minutes) obtained over the 16 hour period of turbidimetric measurement are recorded and exported into the spreadsheet program MS Excel. Means from in each case three parallel batches are calculated and used as the basis for establishing growth curves. The curves of the individual test sample concentrations are compared with those for the negative controls and the MIC value (minimum inhibitory concentration) is determined. […]

[3] = test system: Corynebacterium xerosis (DSM 20743); assay: turbidimetric growth-curve MIC determination; assay type: cell-based; details: DSM20743, turbidimetry 620 nm, 16 h, 37° C., read-out: MIC value (complete inhibition of growth)
Source text: as §1

[4] = test system: Staphylococcus epidermidis (ATCC 12228); assay: turbidimetric growth-curve MIC determination; assay type: cell-based; details: turbidimetry 620 nm, 16 h, 37° C.
Source text: as §1

[5] = test system: microorganisms which cause body odor; assay: in vivo sniffing tests on human test subjects suffering from severe body odor; details: human test subjects with severe body odor
[6] = test system: Brevibacterium epidermidis (ATCC 35514); assay: quantitative suspension test; assay type: cell-based
[7] = test system: Staphylococcus epidermidis (ATCC 12228); assay: quantitative suspension test; assay type: cell-based
[8] = investigations into chemical properties (stability); assay type: physicochemical
Source text: In addition, in pure form, the compound according to the invention of the formula 1 is a white solid which forms a colorless solution in (cosmetic and/or pharmaceutical) carriers; furthermore, no discoloration was observed after incorporation of the compound according to the invention of the formula 1 in cosmetic products, in medical devices and in pharmaceutical preparations.

- MIC [3]: 500 µg/mL (≈ 1840 µM)
- temperature stability [8]: elevated temperature stability
SMILES: COc1cc(CCC(=O)c2ccc(O)cc2)ccc1O [3-(4-hydroxy-3-methoxyphenyl)-1-(4-hydroxyphenyl)-1-propanone]
- antimicrobial activity [1]: confirm the antimicrobial activity
- concentration giving inhibition of the growth [2]: below 0.1 wt. %
- concentration giving inhibition of the growth [4]: below 0.1 wt. %
- antimicrobial activity (body odor) [5]: confirm the antimicrobial activity
- antimicrobial activity [6]: confirm the antimicrobial activity
- antimicrobial activity [7]: confirm the antimicrobial activity
- stability over pH values ([8]; wide range of pH values): high stability over a wide range of pH values
